Test system: pentagastrin-stimulated acid secretion of the perfused rat stomach
Experiment: Testing of the secretion-inhibiting action on the perfused rat stomach
Details: Dose 1.0 µmol/kg i.d. (intraduodenal), in vivo; anesthetized CD rat, female; pentagastrin 1 µg/kg i.v. continuous infusion
From the text: The compounds of the formula 2 according to the invention investigated in the model mentioned below have been provided with letters which correspond to the letters of these compounds in the examples.
In Table A which follows, the influence of the compounds of the formula 2 according to the invention on the pentagastrin-stimulated acid secretion of the perfused rat stomach after intraduodenal administration in vivo is shown. Table A
The abdomen of anesthetized rats (CD rat, female, 200-250 g; 1.5 g/kg i.m. urethane) was opened after tracheotomy by a median upper abdominal incision and a PVC catheter was fixed transorally in the esophagus and another via the pylorus such that the ends of the tubes just projected into the gastric lumen. The catheter leading from the pylorus led outward into the right abdominal wall through a side opening.
After thorough rinsing (about 50-100 ml), warm (37°C) physiological NaCl solution was continuously passed through the stomach (0.5 ml/min, pH 6.8-6.9; Braun-Unita I). The pH (pH meter 632, glass electrode EA 147; φ = 5 mm, Metrohm) and, by titration with a freshly prepared 0.01 N NaOH solution to pH 7 (Dosimat 665 Metrohm), the secreted HCl were determined in the effluent in each case collected at an interval of 15 minutes.
The gastric secretion was stimulated by continuous infusion of 1 µg/kg (=1.65 ml/h) of i.v. pentagastrin (left femoral vein) about 30 min after the end of the operation (i.e. after determination of 2 preliminary fractions). The substances to be tested were administered intraduodenally in a 2.5 ml/kg liquid volume 60 min after the start of the continuous pentagastrin infusion.
The body temperature of the animals was kept at a constant 37.8-38°C by infrared irradiation and heat pads (automatic, stepless control by means of a rectal temperature sensor).

Cc1nc2c3c(c(C(N)=O)cn2c1C)CCC(c1ccccc1)N3 (stereo not drawn) [f, 2,3-Dimethyl-8-phenyl-6,7,8,9-tetrahydro-1,3a,9-triaza-cyclopenta[a]naphthalene-5-carboxylic Acid Amide]
Inhibition of acid secretion (%): > 50%

Cc1nc2c3c(c(C(=O)N(C)C)cn2c1C)CC[C@H](c1ccccc1)N3 [k, (8R)-2,3-Dimethyl-8-phenyl-6,7,8,9-tetrahydro-1,3a,9-triaza-cyclopenta[a]naphthalene-5-carboxylic Acid Dimethylamide]
Inhibition of acid secretion (%): < 50%

CNC(=O)c1cn2c(C)c(C)nc2c2c1CC[C@H](c1ccccc1)N2 [l, (8R)-2,3-Dimethyl-8-phenyl-6,7,8,9-tetrahydro-1,3a,9-triaza-cyclopenta[a]naphthalene-5-carboxylic Acid Methylamide]
Inhibition of acid secretion (%): < 50%

CNC(=O)c1cn2c(C)c(C)nc2c2c1CCC(c1ccccc1)N2 (stereo not drawn) [c, 2,3-Dimethyl-8-phenyl-6,7,8,9-tetrahydro-1,3a,9-triaza-cyclopenta[a]naphthalene-5-carboxylic Acid Methylamide]
Inhibition of acid secretion (%): > 50%

Cc1nc2c3c(c(C(=O)NC4CC4)cn2c1C)CC[C@H](c1ccccc1)N3 [n, (8R)-2,3-Dimethyl-8-phenyl-6,7,8,9-tetrahydro-1,3a,9-triaza-cyclopenta[a]naphthalene-5-carboxylic Acid Cyclopropylamide]
Inhibition of acid secretion (%): < 50%

CNC(=O)c1cn2c(C)c(C)nc2c2c1CC[C@@H](c1ccccc1)N2 [m, (8S)-2,3-Dimethyl-8-phenyl-6,7,8,9-tetrahydro-1,3a,9-triaza-cyclopenta[a]naphthalene-5-carboxylic Acid Methylamide]
Inhibition of acid secretion (%): > 50%

Cc1nc2c3c(c(C(=O)N4CCCC4)cn2c1C)CCC(c1ccccc1)N3 (stereo not drawn) [h, 1-(2,3-Dimethyl-8-phenyl-6,7,8,9-tetrahydro-1,3a,9-triaza-cyclopenta[a]naphthalen-5-yl)-1-pyrrolidin-1-yl-methanone]
Inhibition of acid secretion (%): > 50%

Cc1nc2c3c(c(C(N)=O)cn2c1C)CC[C@@H](c1ccccc1)N3 [q, (8S)-2,3-Dimethyl-8-phenyl-6,7,8,9-tetrahydro-1,3a,9-triaza-cyclopenta[a]naphthalene-5-carboxylic Acid Amide]
Inhibition of acid secretion (%): >50%

Cc1nc2c3c(c(C(=O)NC4CC4)cn2c1C)CC[C@@H](c1ccccc1)N3 [o, (8S)-2,3-Dimethyl-8-phenyl-6,7,8,9-tetrahydro-1,3a,9-triaza-cyclopenta[a]naphthalene-5-carboxylic Acid Cyclopropylamide]
Inhibition of acid secretion (%): > 50%

Cc1nc2c3c(c(C(=O)N(C)C)cn2c1C)CC[C@@H](c1ccccc1)N3 [j, (8S)-2,3-Dimethyl-8-phenyl-6,7,8,9-tetrahydro-1,3a,9-triaza-cyclopenta[a]naphthalene-5-carboxylic Acid Dimethylamide]
Inhibition of acid secretion (%): > 50%

Cc1nc2c3c(c(C(N)=O)cn2c1C)CC[C@H](c1ccccc1)N3 [p, (8R)-2,3-Dimethyl-8-phenyl-6,7,8,9-tetrahydro-1,3a,9-triaza-cyclopenta[a]naphthalene-5-carboxylic Acid Amide]
Inhibition of acid secretion (%): < 50%

Cc1nc2c3c(c(C(=O)N(C)C)cn2c1C)CCC(c1ccccc1)N3 (stereo not drawn) [e, 2,3-Dimethyl-8-phenyl-6,7,8,9-tetrahydro-1,3a,9-triaza-cyclopenta[a]naphthalene-5-carboxylic Acid Dimethylamide]
Inhibition of acid secretion (%): > 50%
